A short description of series [1]: Serum ALT and AST, CD1 mice. The following applies: paclitaxel 10 mg/kg, CTR 30 mg/kg, combinations paclitaxel 5 + CTR 15 mg/kg, vehicle 38.76 ± 0.17, in U/L (unit assumed).
Text: Alanine transaminase (ALT, SUP6001-c) and Aspartate transaminase (AST, SUP6002-c) color endpoint assay kits were purchased from ID Labs (London, Ontario, Canada).
Blood samples were collected via cardiac puncture and processed for ALT and AST measurements. The animals were then immediately euthanized by carbon dioxide.
The subject of series [2] is H69AR. In words: SRB cell viability, multidrug-resistant cells. Format: cell-based. The following applies: for IC50: Homo sapiens, H69AR. The protocol: (§1) Cell line authentication was carried out by Genetica DNA
(§2) Cell viability, com binational i ndex and cell synchronization
(§3) Cell viability and proliferation were ex amined using a s ulforhodamine B (SRB) assa y as […]
(§4) IC 50 values were calculat ed from si gmoidal dose-response cu rves gen erat ed b y at least two indepen dent ex periments , with each quadruplicate samples, using GraphPad Prism v.5.04 software (GraphPad Software, Inc, La J olla, CA). […]
(§5) (sham) or presence of compound(s). […]

Series [3] deals with MDA-MB-231 triple-negative metastatic breast cancer cells. In words: Antitumor activity in engrafted athymic mice. In kind it is in vivo, ATH490 athymic mice. The settings on record: for tumor volume Day 0 / tumor volume Day 6: Tax 10 mg/kg i.v. once/week, CTR 30 mg/kg i.p. every 3-4 days, combinations Tax 5 + CTR 15 mg/kg once/week; for tumor volume Day 6: sham 105.03; for tumor volume Day 14 / tumor volume Day 17 / tumor volume Day 20 / tumor volume Day 24 / tumor volume Day 27 / tumor volume Day 30: same doses; for tumor volume Day 14: sham 136.66; for tumor volume Day 17: sham 162.62; for tumor volume Day 20: sham 192.69; for tumor volume Day 24: sham 268.08; for tumor volume Day 27: sham 426.87; for tumor volume Day 30: sham 557.66. The protocol: The animals were then immediately euthanized by carbon dioxide. […]
Supplementary Table S2. A typical treatment protocol of engrafted mice with CTR alone or in
combination with paclitaxel.
Treatment Dos a ge Frequ enc y Route Notes
Sham control Highest volume E v e r y 3-4 d a ys Intraperitoneal (I.P.) Vehicle onl y
Taxa 10 mg/kgb Once/week Intravenous ( I.V.)
CTR-17 (30) 30 mg/kg E v e r y 3-4 d a ys I. P .
CTR-20 (30) 30 mg/kg E v e r y 3-4 d a ys I. P .
Supplementary Table S 3: Antitumor activity of CTR -17 and CTR -20, alone or in combination
a Tax: paclitaxel. b mg per kg of bod y wei ght. c unit is mm 3. […]

Series [4] relates to KB-C-2. Kind of series: SRB cell viability, MDR1-overexpressing cells. Format: cell-based, human. The settings on record: KB-C-2 vs KB-C-1; Table S1.
Series [5] can be described thus: Body and organ weights, side effects. The following applies: CTR-17 30 mg/kg, CTR-20 30 mg/kg, paclitaxel 10 mg/kg; CD-1 or ATH490 strains.
Experimental: Athymic mice engrafted with tumor cells were used to determine antitumor activity. […] When tumor size reached 5–6 mm in diameter (n = 4–5 per group), mice were randomly assigned into several groups and vehicle-treated or treated with drug(s). […] Animals were monitored for food and water consumption every day, and their body weights and tumor volumes were measured twice per week. Tumor volumes were measured with a digital caliper and were determined by the following formula: ½ length × width^2. Blood samples were collected via cardiac puncture and processed for ALT and AST measurements. The animals were then immediately euthanized by carbon dioxide. Tumors and vital organs (spleen, kidney, liver and lung) were harvested and fixed in 10% buffered formalin at 4 °C overnight before being processed for a paraffin embedding. The paraffin-embedded blocks were then sectioned to 4–5 µm thick. Each section was stained with haematoxylin and eosin (H&E).
In series [6] the test system is KB-C-1. In words: SRB cell viability, parental cells. In kind it is cell-based. The settings on record: Homo sapiens, KBC-1; parental KB-C-1. On the procedure: (§6) human epidermoid carcinoma cell line and KB-C2, an isogenic MDR1- overexpressing drug-resistant cell line, were kindl y provided b y Dr. Amit K Tiwari, the Universit y of Toledo, OH. […]
as §1, §2, §3, §4, §5

Series [7] relates to KB-C-2. In words: SRB cell viability, MDR1-overexpressing cells. The settings on record: Homo sapiens, KB-C2; KB-C-2 MDR1-overexpressing cells. Format: cell-based. On the procedure:
as §6, §1, §2, §3, §4, §5

The subject of series [8] is non-cancerous cells (MCF 10A and 184B5). Kind of series: SRB cell viability, cancer vs non-cancer cells. In kind it is cell-based. The following applies: cancer cells vs MCF 10A and 184B5. On the procedure:
and MCF10AT1 cells were cultured in Dulbecco's Modified Eagle's Medium/Ham's Nutrient Mixture F-12 (DME/F12) supplemented with 10% (volume/volume) FBS , 100 μg/ml streptom ycin and 100 units/ml penicillin, antim ycotic solution, 0.5 μg/ml hydrocortisone, 10 ng/ml human epiderm al growth factor (hEGF) and 5 μg/ml insulin, whereas MCF10CA1a cell line was cultured in DM EM supplemented with 10% FBS (volume/volume). […]
Dr. Susan Cole (Queen’s Universit y, Kingston, Ontario, Canada). The pacl itaxel-resistant MDA-MB-231TaxR cell line was generated in house b y culturing MDA-MB-231 cells (purchased from ATCC and authen ticated ) in the gradual l y incr easi ng con centr ations of pacl itax el until the concentration reached to 100 nM. Cell line authentication was carried out by Genetica DNA Laboratories (Burlington, NC) using a short tandem repeat (STR) profiling method (March 2015; […]
as §2
Cell viability and proliferation were ex amined using a s ulforhodamine B (SRB) assa y as described previousl y (Hu et al., 2008). IC 50 values were calculat ed from si gmoidal dose-response cu rves gen erat ed b y at least two indepen dent ex periments , with each quadruplicate samples, using GraphPad Prism v.5.04 software (GraphPad Software, Inc, La J olla, CA). […]

Series [9] is described as follows: Serum ALT and AST, ATH490 mice. The settings on record: 30 days, paclitaxel 10 mg/kg, CTR 30 mg/kg, combinations 5 + 15 mg/kg; for ALT: sham 64.03± 4.04; for AST: sham 112.46 ± 4.74.
Experimental: For paclitaxel treatments, 40 mg/ml stock solution of paclitaxel (Sigma, MO) was prepared in DMSO. […] Alanine transaminase (ALT, SUP6001-c) and Aspartate transaminase (AST, SUP6002-c) color endpoint assay kits were purchased from ID Labs (London, Ontario, Canada).
Athymic mice engrafted with tumor cells were used to determine antitumor activity. […] When tumor size reached 5–6 mm in diameter (n = 4–5 per group), mice were randomly assigned into several groups and vehicle-treated or treated with drug(s). […] Animals were monitored for food and water consumption every day, and their body weights and tumor volumes were measured twice per week. Tumor volumes were measured with a digital caliper and were determined by the following formula: ½ length × width^2. Blood samples were collected via cardiac puncture and processed for ALT and AST measurements. The animals were then immediately euthanized by carbon dioxide.
carri ed out using GraphP ad Prism software. All values are pr esented as mean±S.E.M.
Comparison between each group was made b y p values determined using one-wa y ANOVA. The
p value of <0.05 is consi dered to be statisticall y significant. Each organ weight was norm alized
with total body mass (BM) as expressed in %.
ATH490 athymic mice were vehicle -treated (Sham) or treated with indicated compounds
and doses for 30 da ys , followed by harvesting liver ( and other o r gans ; Fi g. 7d) for an al ysis of
their toxic effects . […] ( b) Blood sera w erecollected from mice
treated with indicated compounds and doses, and then examinedthe levels of ALT and AST to
gain insight into liver toxicity.
All values ar e present ed as mean±S.E .M.
Series [10] addresses T1, purified porcine tubulin (Sus scrofa, UniProt P02554).
T1 construct: purified porcine tubulin (T240, Cytoskeleton); purchased Cytoskeleton T240
In words: Intrinsic tryptophan fluorescence quenching of tubulin. In kind it is binding. On the procedure: A two-step extraction procedure was used to differentially extract tubulin heterodimers and microtubules from sham-treated cells or those treated with compounds as described previously. To determine the binding ability of CTR compounds to tubulin, the changes in the intrinsic tryptophan fluorescence of purified porcine tubulin (T240, Cytoskeleton) was measured as described previously. GraphPad Prism software was used to determine the dissociation constant of CTRs bound to tubulin, and the following formula was used: ∆F=∆Fmax×C/Kd+C Where, ΔF is the changes in the fluorescence intensity of the tubulin when bound by CTR; ΔFmax is the maximum change in the fluorescence intensity; C is compound concentration; and Kd is the dissociation constant of the compound. The experiment was repeated five times.

Series [11] has as its system SW-1271. Kind of series: SRB cell viability. Format: cell-based. The following applies: SW1271. On the procedure:
as §1, §2, §3, §4, §5

The term IC50 denotes the concentration that gives 50% inhibition. One may read the Kd as the constant that tells how readily two partners part at equilibrium. A low value points to tighter binding.

T1 sequence (P02554 whole entry): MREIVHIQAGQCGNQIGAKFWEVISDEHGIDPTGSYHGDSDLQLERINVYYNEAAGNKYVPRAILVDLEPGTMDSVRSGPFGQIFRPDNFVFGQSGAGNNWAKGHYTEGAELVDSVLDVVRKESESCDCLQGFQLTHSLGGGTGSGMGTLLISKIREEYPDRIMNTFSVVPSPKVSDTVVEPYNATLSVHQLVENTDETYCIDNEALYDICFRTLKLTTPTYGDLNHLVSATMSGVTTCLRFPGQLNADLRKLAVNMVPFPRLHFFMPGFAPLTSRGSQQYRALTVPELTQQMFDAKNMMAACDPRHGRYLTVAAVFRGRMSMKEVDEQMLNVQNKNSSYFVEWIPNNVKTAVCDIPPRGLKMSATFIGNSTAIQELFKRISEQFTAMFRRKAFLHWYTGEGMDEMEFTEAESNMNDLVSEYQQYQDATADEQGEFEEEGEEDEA
T1 sequence (P02550 whole entry partner): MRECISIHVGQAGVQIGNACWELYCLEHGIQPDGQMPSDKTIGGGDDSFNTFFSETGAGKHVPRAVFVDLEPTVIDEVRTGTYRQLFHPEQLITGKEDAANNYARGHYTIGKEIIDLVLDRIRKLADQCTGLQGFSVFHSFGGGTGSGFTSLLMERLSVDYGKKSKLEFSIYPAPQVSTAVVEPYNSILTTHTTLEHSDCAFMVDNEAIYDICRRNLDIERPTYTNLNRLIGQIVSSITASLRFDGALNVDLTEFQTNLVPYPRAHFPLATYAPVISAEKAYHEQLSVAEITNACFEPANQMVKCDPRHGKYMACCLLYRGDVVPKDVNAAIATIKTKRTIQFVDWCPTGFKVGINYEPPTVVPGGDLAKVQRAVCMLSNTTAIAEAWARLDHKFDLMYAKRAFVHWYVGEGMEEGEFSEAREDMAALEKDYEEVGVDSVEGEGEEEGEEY

Take `COc1ccccc1C(=O)/C=C/c1cc2ccccc2[nH]c1=O` [CTR-17, (E)-3-(3-(2-Methoxyphenyl)-3-oxoprop-1-enyl)quinolin-2(1H)-one]: the “levels of ALT and AST” value in series [1] was 37.02 ± 1.46. The “Resistance (fold)” value in series [2] (H69AR vs SW-1271, Table S1) worked out at 0.45 fold. Further, inhibition in series [2] was half-maximal at 520 ± 100 nM (IC50). Moreover, in [3], the “tumor volume Day 0” value is listed as 86.71 mm3, the “tumor volume Day 6” value is listed as 63.99 mm3, the “tumor volume Day 14” value was found to be 90.07 mm3 and the “tumor volume Day 17” value was determined as 128.36 mm3. Moreover, in [3], the “tumor volume Day 20” value is on record as 134.76 mm3, the “tumor volume Day 24” value amounted to 160.86 mm3, the “tumor volume Day 27” value was 189.45 mm3 and the “tumor volume Day 30” value was 209.84 mm3. Moreover, in series [4], the “Resistance (fold)” value came out at 1.71 fold. In [5], the “side effects (changes in body and organ weights)” value is “did not cause any notable side effects”. Also, the IC50 in series [6] was determined as 380 ± 70 nM. In addition, 650 ± 160 nM corresponded to half-maximal inhibition in [7] (IC50). In addition, the “killed cancer cells more effectively than non-cancerous cells” value in series [8] was 20–26 folds. Further, in [9], the ALT turned out to be 64.67± 5.26 IU/L and the AST is on record as 114.13 ± 6.36 IU/L. Besides, the Kd in series [10] was determined as 4580 ± 950 nM. The same compound gave an IC50 in series [11] of 1140 ± 40 nM.
On to `COc1ccc2[nH]c(=O)c(/C=C/C(=O)c3ccccc3OC)cc2c1` [CTR-20, (E)-6-Methoxy-3-(3-(2-methoxyphenyl)-3-oxoprop-1-enyl) quinolin-2(1H)-one], for which the “levels of ALT and AST” value in series [1] is 30.43 ± 0.49. The IC50 in series [2] was found to be 130 ± 10 nM. In addition, in [3], the “tumor volume Day 0” value came out at 92.51 mm3, the “tumor volume Day 6” value was determined as 69.89 mm3, the “tumor volume Day 14” value turned out to be 84.64 mm3 and the “tumor volume Day 17” value is 97.11 mm3. Besides, in [3], the “tumor volume Day 20” value amounted to 97.22 mm3, the “tumor volume Day 24” value came to 106.26 mm3, the “tumor volume Day 27” value amounted to 124.88 mm3 and the “tumor volume Day 30” value stood at 140.63 mm3. Moreover, in series [4], the “Resistance (fold)” value was found to be 2.50 fold. For the same compound, the “side effects (changes in body and organ weights)” value in series [5] is recorded as “did not cause any notable side effects”. For the same compound, the IC50 in series [6] was determined as 100 ± 10 nM. 250 ± 30 nM corresponded to half-maximal inhibition in [7] (IC50). The “killed cancer cells more effectively than non-cancerous cells” value in [8] is recorded as 20–26 folds. In [9], the ALT is 50.50± 9.96 IU/L and the AST is listed as 118.22±17.00 IU/L. The Kd in series [10] was 5090 ± 490 nM. This compound yielded an IC50 in [11] of 1950 ± 10 nM.
